Source: patent US20130131062A1, “PYRIDAZINONES AND FURAN-CONTAINING COMPOUNDS” (priority 2006, published 2013)

Assays:
HPL1D = assay: Sensitivity of cell proliferation to erlotinib; assay type: cell-based; conditions: Homo sapiens, read-out: IC50 (Erlotinib) HPL1D; EGFR WT, KRAS WT
Description: (§1) NHBE (normal human bronchiolar epithelial cells) are primary cells obtained from donor lungs and commercially available from Cambrex. The HPLID (human peripheral lung epithelial) cell line has been immortalized with the SV40 large T-antigen. WI-38: human lung fibroblast cell line. HPLID, NHBE and WI-38 cells will serve as controls in the chemical screens. WT: wildtype; WT*: over-expressed wildtype.

H358 = assay: Non Small Cell Lung Cancer Proliferation Assay (Alamar Blue), dose response; conditions: Homo sapiens, NCI-H358, read-out: H358 Dose Response (uM)
Procedure: (§16) This assay was performed on a fully automated linear track robotic platform (CRS F3 Robot System, Thermo Electron Corp., Ontario, Canada) utilizing several integrated peripherals for plate handling, liquid dispensing, and readout detection. […] The microplates are then placed at 37° C. for 48 hours to complete treatment of cells with compounds. Next, 5 ul of alamar blue was added using a liquid dispenser (FlexDrop Precision Dispenser, Perkin Elmer, Mass., USA) and incubated for 48 hours at 37° C. The alamar blue prompt fluorescence was measured on Victor V (Victor^3 V, Perkin Elmer, Mass., USA) and output data files were loaded into ORIS (Oncology Research Informatics System, MSKCC, NY, USA), a screening data acquisition and analysis platform. […]

H827 = assay: as above; conditions: Homo sapiens, read-out: H827 Dose Response (uM)
Procedure: as §16

H1975 = assay: Non Small Cell Lung Cancer Proliferation Assay (Alamar Blue); assay type: cell-based, human; conditions: Homo sapiens, NCI-H1975, dose response 10 μM to 5 nM
Procedure: (§2) Non Small Cell Lung Cancer cell lines are grown and maintained in Corning 175 cm2 flasks in RPMI 1640 media supplemented with 10% FBS, 1% antibiotic solution, 1% additional glutamine and pyruvate. These cells have a doubling time of 1-2 days. All cell types are adherent and grow in colonies. The cells should be kept at a density between 50,000 cells/mL-500,000 cells/mL to provide for optimum growth and adequate nutrition. The cell line should be maintained at 37° C. in a humidified atmosphere with 5% CO2 in a sterile cell culture incubator.
(§3) To perform the assay, the Non Small Cell Lung Cancer lines are diluted in media and plated into 384 well microplates at a final density of 250 cells in 45 μL. To ensure consistency and minimal pipetting error, the cells are plated using the Multidrop 384 with the following settings: Rocker Switch set at 384, Volume 45 and Column 24.
(§4) Low Controls for this assay are made by treating Non Small Cell Lung Cancer cells with 5 ul of staurosporine at 250 uM in 10% DMSO and 1% SDS. [Final concentration in this assay is 25 uM staurosporine in 1% DMSO and 0.1% SDS.]
(§5) High Controls for this assay are made by treating Non Small Cell Lung Cancer cells with 5 ul of 10% DMSO. [Final concentration in this assay is 1% DMSO].
(§6) The remaining wells of the 384 microplate may be treated with different compounds depending on the study. Important Note: All compounds for testing in this assay should be done at the final concentration of 1% DMSO.
(§7) After addition, the cells are placed in cell culture incubator at 37° C. for 48 hours for complete treatment.
(§8) After drug treatment, cytotoxicity is measured by Alamar Blue reduction. 5 μL of Alamar Blue is added to the 384 microplates using the Flexdrop.
(§9) The cells are incubated for 48 hours at 37° C. to complete the Alamar Blue reduction.
(§10) The final step in the assay is to measure the amount of Alamar Blue reduction. […] The Alamar Blue fluorescence is measured at an excitation of 530 nm and emission of 590 nm.
(§11) For the NSCLC project, the cell based assay was screened against a small molecule library of approximately 200,000 compounds. The compound library is stored in our automated robotic freezer (Biophile) at −20° C. in 100% DMSO. Compound freeze and thaw cycles are kept to a minimum. Compounds for use are diluted into the appropriate concentration and plated into 384 well microplates using our custom built low volume 384-well head tool (TPS 384, Apricot Designs Inc., CA, USA). This assay was performed on a fully automated linear track robotic platform (CRS F3 Robot System, Thermo Electron Corp., Ontario, Canada) utilizing several integrated peripherals for plate handling, liquid dispensing, and readout detection. First, non-small cell lung cancer cell lines are dispensed into 384 well microplates (Corning #3712 Tissue Culture Treated Plate, Corning, N.Y., USA) with 5 μL of test compounds at 100 uM in 10% DMSO for screening studies or 1 mM in 10% DMSO to 50 nM in 10% DMSO for dose response studies. The microplates are then placed at 37° C. for 48 hours to complete treatment of cells with compounds. Next, 5 ul of alamar blue was added using a liquid dispenser (FlexDrop Precision Dispenser, Perkin Elmer, Mass., USA) and incubated for 48 hours at 37° C. The alamar blue prompt fluorescence was measured on Victor V (Victor^3 V, Perkin Elmer, Mass., USA) and output data files were loaded into ORIS (Oncology Research Informatics System, MSKCC, NY, USA), a screening data acquisition and analysis platform.

H1650 = assay: as above; assay type: cell-based, human; conditions: Homo sapiens, NCI-H1650, dose response 10 μM to 5 nM
Procedure: as §2, §3, §4, §5, §6, §7, §8, §9, §10, §11

in vitro = conditions: human
Procedure: as §1
Compounds were tested in dose response studies from 10 μM to 5 nM against several non small cell lung cancer lines: H358, H827, H1118, H1650, H1734, H1975, H2030, and H3255, and were also studied in a 72 hour cytotoxicity assay against the NHBE and WI-38 cell lines.

H1734 = assay: Non Small Cell Lung Cancer Proliferation Assay (Alamar Blue), dose response; conditions: Homo sapiens, NCI-H1734, read-out: H1734 Dose Response (uM)
Procedure: as §16

H3255 = assay: Non Small Cell Lung Cancer Proliferation Assay (Alamar Blue); assay type: cell-based, human; conditions: Homo sapiens, NCI-H3255, dose response 10 μM to 5 nM
Procedure: (§12) These cells have a doubling time of 1-2 days. All cell types are adherent and grow in colonies. The cells should be kept at a density between 50,000 cells/mL-500,000 cells/mL to provide for optimum growth and adequate nutrition. The cell line should be maintained at 37° C. in a humidified atmosphere with 5% CO2 in a sterile cell culture incubator.
(§13) To perform the assay, the Non Small Cell Lung Cancer lines are diluted in media and plated into 384 well microplates at a final density of 250 cells in 45 μL.
as §5
(§14) Important Note: All compounds for testing in this assay should be done at the final concentration of 1% DMSO.
as §7
(§15) After drug treatment, cytotoxicity is measured by Alamar Blue reduction.
as §9, §10
as §11, with “Compounds for use are diluted into the appropriate concentration and plated into 384 well microplates using our custom built low volume 384-well head tool (TPS 384, Apricot Designs Inc., CA, USA).” left out, “First, non-small cell lung cancer cell lines are dispensed into 384 well microplates (Corning #3712 Tissue Culture Treated Plate, Corning, N.Y., USA) with 5 μL of test compounds at 100 uM in 10% DMSO for screening studies or 1 mM in 10% DMSO to 50 nM in 10% DMSO for dose response studies.” left out

H2030 = assay: as above; assay type: cell-based, human; conditions: Homo sapiens, NCI-H2030, dose response 10 μM to 5 nM
Procedure: as §12, §13, §5, §14, §7, §15, §9, §10
as §11, with “Compounds for use are diluted into the appropriate concentration and plated into 384 well microplates using our custom built low volume 384-well head tool (TPS 384, Apricot Designs Inc., CA, USA).” left out, “First, non-small cell lung cancer cell lines are dispensed into 384 well microplates (Corning #3712 Tissue Culture Treated Plate, Corning, N.Y., USA) with 5 μL of test compounds at 100 uM in 10% DMSO for screening studies or 1 mM in 10% DMSO to 50 nM in 10% DMSO for dose response studies.” left out

H1118 = assay: Non Small Cell Lung Cancer Proliferation Assay (Alamar Blue), dose response; conditions: Homo sapiens, read-out: H1118 Dose Response (uM)
Procedure: as §16

| Structure (SMILES) | IC50 (HPL1D) | IC50 (H358) | IC50 (H827) | IC50 (H1975) | IC50 (H1650) | IC50 at 72 h (in vitro) | IC50 at 72 h (in vitro; NHBE CytoTox (uM)) | IC50 (H1734) | IC50 (H3255) | IC50 (H2030) | IC50 (H1118) |
| --- | --- | --- | --- | --- | --- | --- | --- | --- | --- | --- | --- |
| C#Cc1cccc(Nc2ncnc3cc(OCCOC)c(OCCOC)cc23)c1 [Erlotinib, erlotinib] | 10 µM |  |  |  |  |  |  |  |  |  |  |
| CN/N=C1\C=NN(c2ccccc2)C(=O)C1Cl (centres unmarked) [compound 257024] |  | > 10 µM | > 10 µM | > 10 µM | > 10 µM | > 10 µM | > 10 µM | > 10 µM | > 10 µM | > 10 µM | > 10 µM |
